Key:
[1] = Cytotoxicity against human Hs 371.T cells by MTT assay; assay type: cell-based
MCF7 [2] = experiment: Antiproliferative activity against human MCF7 cells after 48 hrs by SRB assay; assay type: functional, cell-based; conditions: MCF7, 48 h
[3] = Cytotoxicity against mouse AML-12 cells by MTT assay; assay type: cell-based; conditions: AML12
HepG2 = experiment: Antiproliferative activity against human HepG2 cells after 48 hrs by SRB assay; assay type: functional, cell-based; conditions: HepG2, 48 h
MCF7 [4] = experiment: Potency index, ratio of colchicine IC50 to compound IC50 for human MCF7 cells; assay type: functional
[5] = target: Tubulin beta-5 chain (Homo sapiens) (UniProt P07437); experiment: Inhibition of tubulin beta polymerization in human MCF7 cells after 18 to 24 hrs by spectrophotometric method relative to control; assay type: cell-based; design: concentration or dose not given beside the values; conditions: concentration not given here
Sequence of Tubulin beta-5 chain (Homo sapiens) (P07437 whole entry): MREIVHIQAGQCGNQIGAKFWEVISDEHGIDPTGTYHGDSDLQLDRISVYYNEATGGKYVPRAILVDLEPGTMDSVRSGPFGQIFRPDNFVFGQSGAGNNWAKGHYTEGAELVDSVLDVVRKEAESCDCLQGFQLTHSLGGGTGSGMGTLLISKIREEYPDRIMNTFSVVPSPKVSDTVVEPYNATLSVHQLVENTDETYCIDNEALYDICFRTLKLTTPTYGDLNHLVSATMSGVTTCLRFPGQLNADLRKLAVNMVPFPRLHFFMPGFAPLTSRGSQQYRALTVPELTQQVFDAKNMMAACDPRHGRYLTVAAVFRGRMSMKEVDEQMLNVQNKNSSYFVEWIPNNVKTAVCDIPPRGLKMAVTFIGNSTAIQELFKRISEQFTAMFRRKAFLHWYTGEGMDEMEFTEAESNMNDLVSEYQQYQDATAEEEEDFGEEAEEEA

[6] = target: Tubulin beta-5 chain (Homo sapiens) (UniProt P07437); experiment: Inhibition of tubulin beta polymerization in human HepG2 cells after 18 to 24 hrs by spectrophotometric method relative to control; assay type: cell-based; design: concentration or dose not given beside the values; conditions: concentration not given here
[7] = Selectivity ratio of IC50 for human Hs 371.T cells to IC50 for human MCF7 cells
[8] = Selectivity ratio of IC50 for mouse AML-12 cells to IC50 for human HepG2 cells

Row | IC50 (MCF7 [2]) | IC50 (HepG2) | inhibition [5] | inhibition [6] | Structure (SMILES) | IC50 [1] | IC50 [3] | Ratio IC50 (MCF7 [4]) | Ratio IC50 [7] | Ratio IC50 [8]
1 | 16 nM | 13 nM | – | – | COc1ccc(C2=NN(c3ccccc3)C(c3ccc(F)cc3)C2O)cc1 (stereo unspecified) | – | – | – | – | –
2 | 14 nM | 17 nM | 88.4% | – | COc1cccc(C(=O)C2OC2c2ccc(F)cc2)c1 (stereo unspecified) | – | – | 10 | – | –
3 | 150 nM | 54 nM | – | 90.6% | COc1cccc(C2=CC(c3ccc(Cl)cc3)NC(=S)N2)c1 (stereo unspecified) | – | – | 2 | – | –
4 | 126 nM | 30 nM | – | 91.4% | COc1ccc(C2=CC(c3ccc(Br)cc3)NC(=S)N2)cc1 (stereo unspecified) | – | – | 2 | – | –
5 | 9.7 nM | 11 nM | 92.3% | 93% | COc1cccc(C2=NN(c3ccccc3)C(c3ccc(Cl)cc3)C2O)c1 (stereo unspecified) | 86.7 nM | 74.1 nM | – | 2.5 - 9 | 2.5 - 9
6 | 49 nM | 35.3 nM | – | – | COc1cccc(C2=NNC(c3ccc(Cl)cc3)C2O)c1 (stereo unspecified) | – | – | – | – | –
7 | 9.9 nM | 37.2 nM | 92.2% | 88.5% | COc1cccc(C(=O)C(O)C(Nc2ccc(F)c(Cl)c2)c2ccc(Br)cc2)c1 (stereo unspecified) | 90.2 nM | – | – | 2.5 - 9 | –
8 | 49 nM | 43 nM | – | – | COc1cccc(C2=NNC(c3ccc(Br)cc3)C2O)c1 (stereo unspecified) | – | – | – | – | –
9 | 77 nM | 9.5 nM | – | 92.8% | COc1cc(C2=CC(c3ccc(Br)cc3)NC(=S)N2)cc(OC)c1OC (stereo unspecified) | – | 59.4 nM | 2 | – | 2.5 - 9
10 | 26 nM | 15 nM | – | – | COc1ccc(C(=O)C2OC2c2ccc(Cl)cc2)cc1 (stereo unspecified) | – | – | – | – | –
11 | 135 nM | 34 nM | – | – | COc1cccc(C2=CC(c3ccc(Br)cc3)NC(=S)N2)c1 (stereo unspecified) | – | – | 2 | – | –
12 | 11 nM | 9.9 nM | 87.8% | 84.6% | COc1cccc(C2=NN(c3ccccc3)C(c3ccc(Br)cc3)C2O)c1 (stereo unspecified) | 474 nM | 26.9 nM | – | 2.5 - 9 | 2.5 - 9
13 | 120 nM | 11 nM | – | 92.4% | COc1cc(C2=CC(c3ccc(Cl)cc3)NC(=S)N2)cc(OC)c1OC (stereo unspecified) | – | 88.5 nM | 2 | – | 2.5 - 9
14 | 125 nM | 61.9 nM | – | – | COc1cc(C2=CC(c3ccc(F)cc3)NC(=S)N2)cc(OC)c1OC (stereo unspecified) | – | – | 2 | – | –
15 | 103 nM | 90 nM | – | – | COc1ccc(C2C=C(c3cc(OC)c(OC)c(OC)c3)NC(=S)N2)cc1 (stereo unspecified) | – | – | 2 | – | –
16 | 19 nM | 10.2 nM | – | – | COc1ccc(C2=NN(c3ccccc3)C(c3ccc(OC)cc3)C2O)cc1 (stereo unspecified) | – | – | – | – | –

Row | Structure (SMILES) | IC50 (MCF7 [2]) | IC50 (HepG2) | inhibition [5] | inhibition [6] | IC50 [1] | IC50 [3] | Ratio IC50 (MCF7 [4]) | Ratio IC50 [7] | Ratio IC50 [8]
17 | COc1cc2c(c(OC)c1OC)-c1ccc(OC)c(=O)cc1[C@@H](NC(C)=O)CC2 [COLCHICINE] | 150 nM | 124 nM | – | – | 443 nM | 138 nM | – | – | –
18 | COc1cccc(C(=O)C2SC2c2ccc(Br)cc2)c1 (stereo unspecified) | 23 nM | 11 nM | – | 85.7% | – | – | – | – | –
19 | COc1cccc(C(=O)C2SC2c2ccc(Cl)cc2)c1 (stereo unspecified) | 15 nM | 13 nM | 89.3% | 88.6% | – | – | – | – | –

Source: ChEMBL document CHEMBL4002544, “Design, synthesis and cytotoxic activity of certain novel chalcone analogous compounds” (Eur J Med Chem, 2017)
